Reference: publication PMC11648825, “Lasamide Containing Sulfonylpiperazines as Effective Agents for the Management of Glaucoma Associated Symptoms” (Chemmedchem, 2024)
Like-named read-outs stand apart in the source and are kept apart here.

How the values were obtained:
Test in all cases: stopped-flow CO2 hydrase assay
Format in all cases: biochemical
hCA IX = biological target: T1, hCA IX (Homo sapiens, UniProt Q16790)
T1 construct: gene CA9; recombinant, made in-house
Excerpt: stopped-flow CO2 hydrase assay on hCA IX

hCA I = biological target: T2, hCA I (Homo sapiens, UniProt P00915)
T2 construct: gene CA1; purchased from Merck; cytosolic isoform; construct not described
T2 sequence (P00915 2-261): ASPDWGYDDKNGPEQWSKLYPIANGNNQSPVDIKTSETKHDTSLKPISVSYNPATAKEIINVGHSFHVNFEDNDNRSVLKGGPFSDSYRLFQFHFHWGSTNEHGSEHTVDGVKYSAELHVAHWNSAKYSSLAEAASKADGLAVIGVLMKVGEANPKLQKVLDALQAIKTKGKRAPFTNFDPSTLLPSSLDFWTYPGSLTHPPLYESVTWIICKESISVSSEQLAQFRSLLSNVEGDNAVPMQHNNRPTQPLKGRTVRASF
Excerpt: stopped-flow CO2 hydrase assay on hCA I

hCA XII = biological target: T3, hCA XII (Homo sapiens, UniProt O43570)
T3 construct: gene CA12; recombinant, made in-house
T3 sequence (O43570 25-354 limits assumed): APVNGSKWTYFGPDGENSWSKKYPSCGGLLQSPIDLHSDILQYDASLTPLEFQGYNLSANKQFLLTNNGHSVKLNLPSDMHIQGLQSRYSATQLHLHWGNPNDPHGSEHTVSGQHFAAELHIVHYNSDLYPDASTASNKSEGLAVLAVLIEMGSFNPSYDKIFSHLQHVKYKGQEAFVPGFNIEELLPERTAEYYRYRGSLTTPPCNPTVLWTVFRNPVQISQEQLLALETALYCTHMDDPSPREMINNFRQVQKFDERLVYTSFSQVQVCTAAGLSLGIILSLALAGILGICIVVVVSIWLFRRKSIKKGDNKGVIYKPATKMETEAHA
Excerpt: stopped-flow CO2 hydrase assay on hCA XII

hCA II = biological target: T4, hCA II (Homo sapiens, UniProt P00918)
T4 construct: gene CA2; purchased from Merck; cytosolic isoform; construct not described
Excerpt: stopped-flow CO2 hydrase assay on hCA II

[1] = CO2 substrate; […] HEPES pH […] Na2SO4, […] min preincubation at room temperature

| SMILES | Ki (hCA IX; [1]) [nM] | Ki (hCA I; [1]) [nM] | Ki (hCA XII; [1]) [nM] | Ki (hCA II; [1]) [nM] | Ki (hCA IX) [nM] | Ki (hCA I) [nM] | Ki (hCA XII) [nM] | Ki (hCA II) [nM] |
| --- | --- | --- | --- | --- | --- | --- | --- | --- |
| NS(=O)(=O)c1cc(C(=O)O)c(Cl)cc1Cl [compound 1, 2,4‐dichloro‐5‐sulfamoylbenzoic acid] | 2.6 | 0.52 | 7.5 | 0.33 | – | – | – | – |
| CC(C)(C)OC(=O)N1CCN(C(=O)c2cc(S(N)(=O)=O)c(Cl)cc2Cl)CC1 [compound 2, Tert‐butyl 4‐[(2,4‐dichloro‐5‐sulfamoylphenyl)carbonyl]piperazine‐1‐carboxylate] | – | – | – | – | 40.1 | 85.7 | 50.1 | 3.9 |
| NS(=O)(=O)c1cc(C(=O)N2CCN(S(=O)(=O)c3ccc(Cl)c(Cl)c3)CC2)c(Cl)cc1Cl [compound 15, 2,4‐dichloro‐5‐({4‐[(3,4‐dichlorophenyl)sulfonyl]piperazin‐1‐yl}carbonyl)benzenesulfonamide] | – | – | – | – | 39 | 7.1 | 9.1 | 5.7 |
| NS(=O)(=O)c1cc(C(=O)N2CCN(S(=O)(=O)Cc3ccccc3)CC2)c(Cl)cc1Cl [compound 16, 5‐{[4‐(benzylsulfonyl)piperazin‐1‐yl]carbonyl}‐2,4‐dichlorobenzenesulfonamide] | – | – | – | – | 273 | 0.54 | 0.87 | 0.07 |
| CC(=O)Nc1ccc(S(=O)(=O)N2CCN(C(=O)c3cc(S(N)(=O)=O)c(Cl)cc3Cl)CC2)cc1 [compound 10, 5‐({4‐[(4‐acetylaminophenyl)sulfonyl]piperazin‐1‐yl}carbonyl)‐2,4‐dichlorobenzenesulfonamide] | – | – | – | – | 40.4 | 8 | 7.2 | 5.4 |
| NS(=O)(=O)c1cc(C(=O)N2CCN(S(=O)(=O)c3ccc([N+](=O)[O-])cc3)CC2)c(Cl)cc1Cl [compound 8, 2,4‐dichloro‐5‐({4‐[(4‐nitrophenyl)sulfonyl]piperazin‐1‐yl}carbonyl)benzenesulfonamide] | – | – | – | – | 39.4 | 79.9 | 7.9 | 71.2 |
| Nc1ccc(S(=O)(=O)N2CCN(C(=O)c3cc(S(N)(=O)=O)c(Cl)cc3Cl)CC2)cc1 [compound 9, 5‐({4‐[(4‐aminophenyl)sulfonyl]piperazin‐1‐yl}carbonyl)‐2,4‐dichlorobenzenesulfonamide] | – | – | – | – | 152 | 5.7 | 6.9 | 2.6 |
| Nc1ccccc1S(=O)(=O)N1CCN(C(=O)c2cc(S(N)(=O)=O)c(Cl)cc2Cl)CC1 [compound 14, 5‐({4‐[(2‐aminophenyl)sulfonyl]piperazin‐1‐yl}carbonyl)‐2,4‐dichlorobenzenesulfonamide] | – | – | – | – | 11.4 | 5.4 | 9.6 | 2.8 |
| Cc1ccc(S(=O)(=O)N2CCN(C(=O)c3cc(S(N)(=O)=O)c(Cl)cc3Cl)CC2)cc1 [compound 5, 2,4‐dichloro‐5‐({4‐[(4‐methylphenyl)sulfonyl]piperazin‐1‐yl}carbonyl)benzenesulfonamide] | – | – | – | – | 340 | 64 | 62.4 | 29 |
| NS(=O)(=O)c1cc(C(=O)N2CCN(S(=O)(=O)c3ccccc3)CC2)c(Cl)cc1Cl [compound 4, 2,4‐dichloro‐5‐{[4‐(phenylsulfonyl)piperazin‐1‐yl]carbonyl}benzenesulfonamide] | – | – | – | – | 39.7 | 9.4 | 7.1 | 7.4 |
| NS(=O)(=O)c1cc(C(=O)N2CCN(S(=O)(=O)c3cccc([N+](=O)[O-])c3)CC2)c(Cl)cc1Cl [compound 11, 2,4‐dichloro‐5‐({4‐[(3‐nitrophenyl)sulfonyl]piperazin‐1‐yl}carbonyl)benzenesulfonamide] | – | – | – | – | 37.7 | 6.2 | 7.8 | 6.6 |
| NS(=O)(=O)c1cc(C(=O)N2CCN(S(=O)(=O)c3ccc(Cl)cc3)CC2)c(Cl)cc1Cl [compound 7, 2,4‐dichloro‐5‐({4‐[(4‐chlorophenyl)sulfonyl]piperazin‐1‐yl}carbonyl)benzenesulfonamide] | – | – | – | – | 35.8 | 8.2 | 5.2 | 3.4 |
| COc1ccc(S(=O)(=O)N2CCN(C(=O)c3cc(S(N)(=O)=O)c(Cl)cc3Cl)CC2)cc1 [compound 6, 2,4‐dichloro‐5‐({4‐[(4‐methoxyphenyl)sulfonyl]piperazin‐1‐yl}carbonyl)benzenesulfonamide] | – | – | – | – | 40.6 | 9.1 | 11.6 | 2.8 |
| Nc1cccc(S(=O)(=O)N2CCN(C(=O)c3cc(S(N)(=O)=O)c(Cl)cc3Cl)CC2)c1 [compound 12, 5‐({4‐[(3‐aminophenyl)sulfonyl]piperazin‐1‐yl}carbonyl)‐2,4‐dichlorobenzenesulfonamide] | – | – | – | – | 26.3 | 5.8 | 5.4 | 0.8 |
| NS(=O)(=O)c1cc(C(=O)N2CCN(S(=O)(=O)c3ccccc3[N+](=O)[O-])CC2)c(Cl)cc1Cl [compound 13, 2,4‐dichloro‐5‐({4‐[(2‐nitrophenyl)sulfonyl]piperazin‐1‐yl}carbonyl)benzenesulfonamide] | – | – | – | – | 28.9 | 7.8 | 7.2 | 0.3 |
